In US20240376427A1, “COMPOSITIONS AND SYSTEMS COMPRISING THREE-DIMENSIONAL NERVE CELL CULTURES AND METHODS OF USING THE SAME” (THE ADMINISTRATORS OF THE TULANE EDUCATIONAL FUND, priority 2021, published 2024):

Legend:
[1] = test system: DRG spheroid monocultures; format: cell-based, rat
[2] = test system: hPSC-derived nociceptor-dorsal spinal cord cocultures; assay: Evoked response field potential recording in hPSC-derived nociceptor-dorsal spinal cord cocultures; format: cell-based, human
Description: Generation o±3D Spheroid Cultures. Cryogenically preserved human stem-cell derived spinal cord dorsal horn (SCDH) precursor cells were a kind gift from the Randolph Ashton. Cells were rapidly thawed and diluted 1:4 in Neurobasal Medium (Thermo-Fisher Scientific, Waltham, MA). Cells were centrifuged at 300 g for 4 minutes and the supernatant was removed. Cells were then resuspended in neuronal differentiation media comprised of Neurobasal Medium supplemented with 2% v/v B27 supplement (Thermo-Fisher), 1% v/v N2 supplement (Thermo-Fisher), 1% v/v GlutaMAX (Thermo-Fisher), 20 ng/mL human nerve growth factor, 10 ng/mL recombinant human/murine/rat brain derived neurotrophic factor, 10 ng/mL recombinant human glial cell derived neurotrophic factor, 10 ng/mL recombinant human NT-3 (all growth factors from PeproTech, Cranbury, NJ, USA), 1 uM dibutyrl-cAMP (Millipore-Sigma, St. Louis, MO, USA), 10 uM Y-27632 (Abcam, Waltham, MA, USA), 10 uM DAPT (Tocris, Minneapolis, MN, USA), and 1% v/v antibiotic/antimycotic solution (Thermo-Fisher). Cells were plated at 500,000 cells/cm^2 on culture well plates coated with Matrigel (Corning) diluted at 1:100 for six days in neuronal differentiation media changed every-other-day to force terminal neuron differentiation. Cryogenically preserved human stem cell-derived nociceptors were purchased from Anatomic, Inc (Minneapolis, MN, USA). Cells were rapidly thawed, diluted 1:4 in Neurobasal Medium, centrifuged at 300 g for 4 minutes, and the supernatant was removed. Nociceptors were then resuspended in human culture growth media (identical to neuronal differentiation media but lacking DAPT and Y-27632) plated at 80,000 cells/cm^2 in well plates coated with Matrigel diluted at 1:100, allowed to adhere overnight, and washed to remove any dead cell debris. Nociceptor and terminally differentiated SCDH cell cultures were lifted by incubation in Accutase at 37° C. for 15 minutes. The cell suspensions were collected, centrifuged at 300 g for 4 minutes, the supernatant was removed, and both cell types were resuspended in culture growth media. […]

[3] = test system: DRG(CHR2-GFP)-SCDH(CaMPARI-2) cocultures; assay: Optogenetic DRG photostimulation-induced calcium influx in SCDH recorded by CaMPARI-2; format: cell-based, rat
Description: (§1) AAV1-hSyn-NES-his-CaMPARI2-WPRE-SV40 was a gift from Eric Schreiter (Addgene viral prep #101060-AAV1; http://n2t.net/addgene:101060; […]; http://n2t.net/addgene:58880; RRID:Addgene_5880). Viral particles of both types were added during spheroid formation with a MOI of 200,000. Cultures were seeded and matured for three weeks. Baseline red fluorescence was imaged with both three and ten second exposures prior to photostimulation using a Nikon AZ100 fluorescent microscope (2× magnification plus 5× or 8× digital zoom). […] Post-photostimulation red fluorescence was again imaged with methods identical to baseline imaging. The integrated pixel intensity for a region of interest encompassing each spheroid of interest was quantified in Fiji (ImageJ) and post-photostimulation intensity was normalized to pre stimulation intensity to obtain a final value for fold change in integrated pixel intensity.
(§2) The optogenetic experiments were conducted with between-samples designs. The fold change in red fluorescence before and after photostimulation was compared between control cultures and groups of cultures that received different independent treatments. […]

DRG monocultures = assay: CaMPARI-2 recorded calcium influx in DRG monocultures (capsaicin); format: cell-based, rat; details: 10 μM capsaicin for five minutes prior to photostimulation, vs vehicle (0.1% DMSO)
Description: as §1, §2

[4] = test system: hPSC-derived nociceptor-SCDH cocultures; format: cell-based, human

SMILES: N#Cc1cc2c(cc1[N+](=O)[O-])=NC(=O)C(=O)N=2.O.[Na].[Na] [CNQX, 6-Cyano-7-nitroquinoxaline-2,3-dione disodium salt hydrate]
- electrically-evoked compound action potentials (CAPs) [1]: insensitive
- amplitude of the later negative and positive-going portions of the synaptic waveform [2]: reduced
- synaptically evoked activity in dorsal spinal cord tissue following stimulation of afferent nociceptor spheroid [2]: blocks a large portion
- calcium influx in SCDH following optical excitation of DRG tissue [3]: significantly reduced calcium influx

SMILES: O=C(O)CN(CCN(CC(=O)O)CC(=O)O)CC(=O)O [EDTA, ethylenediaminetetraacetic acid]
- electrically-evoked compound action potentials (CAPs) [1]: insensitive

SMILES: COc1cc(CNC(=O)CCCC/C=C/C(C)C)ccc1O [capsaicin]
- calcium influx recorded by CaMPARI-2 (fold change in red fluorescence) (DRG monocultures): induced significant calcium influx

SMILES: CN1CC[C@]23c4c5ccc(O)c4O[C@H]2[C@@H](O)C=C[C@H]3[C@H]1C5.O=S(=O)(O)O [morphine, Morphine sulfate]
- late, positive-going portion of the synaptically evoked waveform [2]: prolongs
- fully spontaneous burst firing in SCDH spheroid [4]: increases in frequency and amplitude
- semi-spontaneous burst firing in SCDH spheroid [4]: increased in frequency

SMILES: NC1=N[C@H](O)[C@H]2[C@H]3O[C@]4(O)O[C@@H]([C@@H](O)[C@@]2(N1)[C@@H]4O)[C@]3(O)CO [tetrodotoxin]
- electrically-evoked compound action potentials (CAPs) [1]: completely blocked
